Experimental data as given in PubChem BioAssay (NCI).
Several values for one entry are separate records, joined by “and”; a condition that tells them apart may be missing. Identical values can stand only once.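 Tested at 5 concentrations; 48 h exposure; 96-well plates; endpoints linearly interpolated, else capped at highest concentration. At the GI50, growth is halved. Definition used: TGI = concentration required for complete inhibition of growth.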

Experiments:
Assay in all cases: NCI anticancer screen, dose series, 48 h
[1] = tested on: A549 NSCLC
[2] = tested on: ACHN renal
[3] = tested on: EKVX NSCLC
[4] = tested on: HCT-116 colon
[5] = tested on: MDA-MB-231 breast
[6] = tested on: NCI-H226 lung
[7] = tested on: OVCAR-5 ovarian
[8] = tested on: PC-3 prostate
[9] = tested on: SK-MEL-5 melanoma
[10] = tested on: T-47D breast

Row | Compound | TGI [1] [µM] | GI50 [2] [µM] | TGI [2] [µM] | TGI [3] [µM] | TGI [4] | GI50 [5] [µM] | TGI [5] | GI50 [6] [µM] | TGI [6] [µM] | TGI [7] [µM] | TGI [8] [µM] | TGI [9] | GI50 [10] [µM] | GI50 [1] [µM] | GI50 [3] [µM] | GI50 [4] [µM] | GI50 [7] [µM] | GI50 [8] [µM] | GI50 [9] [µM] | TGI [10] [µM]
1 | C=C(Cl)C(Br)(CCl)CCC(Br)C(C)(C)Cl (stereo not drawn) | 38.1 | 3.94 | 9.71 | 12.8 | 3.14 µM and 3.21 µM | 2.02 | 2.32 µM and 3.77 µM | 1.91 | 5.22 | 19.4 | 14.2 | 6.96 µM and 6.1 µM | 30.1 |  |  |  |  |  |  | 
2 | COc1ccc(-c2nn(-c3ccc(NC(=O)c4ccc(Cl)c(Cl)c4)cc3)cc2-c2ccncc2)cc1Cl | > 50 | > 13.2 | > 50 | > 50 | > 50 µM | 0.993 | 2.96 µM | > 28.2 | > 50 | > 50 | > 50 | > 50 µM | > 50 | > 12.4 | 3.25 | 2.5 | 3.24 | 2.42 | 1.91 | > 50
3 | COc1c(OC[C@H](O)CN2CCOCC2)ccc2c3n(c(=NC(=O)c4cccnc4C)nc12)CCN3 | > 50 | 0.411 | > 50 | > 50 | > 50 µM | > 50 | > 50 µM | 15.4 | > 50 | > 50 | > 50 | > 50 µM | 0.0315 | 0.826 | 1.05 | 24.2 | 0.171 | 0.326 | > 50 | 0.361
4 | CN(C)CC[PH+](c1ccccc1)c1ccccc1.CN(C)CC[PH+](c1ccccc1)c1ccccc1.[Cl-].[Pd+2] | > 100 | > 100 | > 100 | > 100 | > 100 µM | > 100 | > 100 µM | > 100 | > 100 | > 100 | > 100 | > 100 µM | > 100 | > 100 | > 100 | > 100 | > 100 | > 100 | > 100 | > 100
5 | Cc1ccc(NC(=O)CC2CC2)cc1-c1ccc(C(=O)NCC2CC2)cc1 | > 25 | > 25 | > 25 | > 25 | > 25 µM | > 25 | > 25 µM | > 25 | > 25 | > 25 | > 25 | > 25 µM | > 17.3 | > 25 | > 25 | > 25 | > 25 | > 25 | > 17.5 | > 25
6 | O=C(Nc1ccncc1)C(=O)c1cn(S(=O)(=O)c2ccc(F)cc2)c2ccccc12 | > 100 | 5.76 | > 100 | > 100 | 34.1 µM | 5.97 | > 100 µM | 9.15 | > 100 | > 100 | > 100 | 16.3 µM | 2.24 | 18.5 | 3.9 | 0.781 | 7.96 | 4.45 | 1.84 | 61
7 | CC[C@H]1[C@@H]2C=C[C@@H]3[C@H]4C/C=C\C(=O)NCCC[C@@H]5NC(=O)/C(=C(O)/C=C/[C@@H]4C[C@@H]3[C@H]2C[C@H]1C)C5=O | 3.99 | 0.42 | 1.57 | 3.31 | 3.03 µM | 1.3 | 2.66 µM | 0.738 | 2.56 | 3.5 | 2.3 | 2.2 µM | 1.7 | 2 | 1.45 | 1.48 | 1.66 | 0.865 | 0.9 | 4.1
8 | Oc1cccnc1[Se] | > 100 |  | > 100 | 80.2 | > 100 µM |  | > 100 µM |  | > 100 | > 100 | > 100 | > 100 µM |  |  |  |  |  |  |  | > 100
9 | CCSc1ncnc2c1ncn2C1OC(CO)C(O)C1O (stereo not drawn) | > 60.2 | 0.425 | > 100 | > 100 | > 100 µM | 0.745 | > 100 µM | 0.845 | > 100 | > 100 | > 71.3 | > 100 µM | 1.69 | 0.777 | 0.419 | 0.339 | 0.65 | 0.692 | 2.83 | > 48.9
10 | O=C1OCC2=C1C(c1cccc(Br)c1)c1cc3c(cc1N2CCO)CCC3 (stereo not drawn) | 5.54 | 0.0865 | 9.68 | 19.5 | 3.04 µM | 0.191 | 1.22 µM | 0.116 | 0.761 | 10 | 7.1 | 0.428 µM | 2.37 | 0.133 | 0.682 | 0.0904 | 0.322 | 0.0864 | 0.0482 | 17.9
11 | CN(C)C(n1cc2c(c1)-c1ccc(Cl)cc1C(c1ccccc1F)=NC2)n1cc2c(c1)-c1ccc(Cl)cc1C(c1ccccc1F)=NC2 | > 100 |  | > 100 | > 100 | > 100 µM |  | > 100 µM |  | > 100 | > 100 | > 100 | > 100 µM |  |  |  |  |  |  |  | > 100
12 | COc1ccc2c(c1)C(=O)c1c-2c(N2CCN(C(=O)CNCCNCCO)CC2)nc2ccccc12 | 24.3 | 11 | 24.9 | 19.7 | 3.07 µM | 3.23 | 12.7 µM | 10.9 | 29.5 | 31 | 18.7 | 27.5 µM | 2.49 | 7.1 | 7.15 | 1.59 | 15.4 | 5.57 | 13.3 | 6.55
13 | O=C(CC1(O)C(=O)N(Cc2ccccc2)c2ccc(F)cc21)c1ccc(C(=O)NCC2CCC3(CC2)OOC2(CCCCC2)OO3)cc1 (stereo not drawn) | 0.441 | 0.179 | 0.363 | 1.25 | 3.29 µM | 0.423 | 1.68 µM | 1.1 | 4.19 | 4.89 | 3.21 | 2.96 µM | 0.843 | 0.207 | 0.412 | 1.36 | 1.17 | 0.99 | 1.54 | 3.11
